Key:
SCC12 cells = experiment: Organotypic invasion assay; type: cell-based, human
Protocol: In this assay, hDF or CAFs were cultured during one week in serum-free medium (with either vehicle or cytokines) or CM before embedding in matrix gel. 5×10^5 fibroblasts were embedded in a 1 ml mixture of collagen I and Matrigel18. After the gel was set at 37° C. for 1 h, 5×10^5 SCC12 were plated on top of the gel in complete media. The next day, the gel was lifted onto individual collagen coated nylon discs resting on metal bridges and fed from underneath with daily changes of complete media (with either vehicle or inhibitors), allowing the epithelial layer to grow at an air-liquid interface.
After 5 days, cultures were fixed (4% paraformaldehyde+0.25% glutaraldehyde in PBS) and processed for haematoxylin and eosin (H&E) staining by standard methods. Invasion assay was measuring the total area of SCC cells and the area of non-invading SCC cells using imageJ software (http://rsbweb.nih.gov/ij/). The value of invasion index shown is the average 1−(non-invading area/total area) of at least ten fields from three or more independent experiments. Error bars are the standard deviation.

STAT3 = STAT3 phosphorylation in fibroblasts (western blot); type: cell-based, human
Excerpt: (§1) For western blot analysis, antibodies against STAT3 (#9134), pY705-STAT3 (#9145), SMAD2 (#3122), pSer465/467-SMAD2 (#3108), pY1022/1023-JAK1 (#3331), MLC2 (#3672), pThr18/19-MLC2 (#3674) were purchased from Cell Signaling (Cell Signaling Technology, Beverly Mass.), α-tubulin from sigma (T4026, Sigma, Saint Louis, Mo.); JAK1 from Biolegend (#604402, Biolegend, San Diego, Calif.), GP-130 (#sc-655) and RhoA (#sc-418, Santa Cruz Biotechnology, Santa Cruz, Calif.), and alpha-smooth muscle actin (α-SMA) from Abcam (#Ab5694, Abcam, Cambridge, Mass.). For immunofluorescence staining, antibodies against α-SMA and fibronectin were purchased from Sigma (#A2547 and F3648 respectively, Sigma, Saint Louis, Mo.). Chemical inhibitors used: Pyridone 6 (#42009, Calbiochem, Los Angeles, Calif.) was used at […], SB431542 (#1614, Tocris bioscience, Ellisville, Mo.) at 10 μM, Y27632 (#1254, Tocris bioscience, Ellisville, Mo.) and Actinomycin D (#856258, Sigma, Saint Louis, USA) at 5 μg/ml.
(§2) For immunoblotting analysis, cells were lysed on ice in lysis buffer (25 mM Tris (pH 6.8), 2% Sodium dodecyl sulfate (SDS), 5% glycerol, 1% beta-mercaptoethanol, 0.01% bromophenol blue). Equal amounts of protein from each sample were loaded on sodium dodecyl sulfate-polyacrylamide gel electrophoresis, separated, and transferred onto nitrocellulose. The immunoblots were blocked by incubation in 5% bovine serum albumin, 10 mM Tris-HCl (ph7.5), 500 mM NaCl, 0.1% Tween 20 for 30 min at room temperature, probed with specific antibodies and then with secondary antibodies using common classical methods. Immunodetection was performed using chemiluminescent HRP subtrate (#WBKLS0500, Millipore, Billerica, Mass.).

hDF and hCAF = experiment: Matrix remodelling (collagen gel contraction) assay; type: cell-based, human; conditions: collagen rich lattices
Protocol: (§3) 2.5×10^4 Fibroblasts were embedded in 100 μl of matrix gel (the Collagen-Matrigel mixture used for organotypic invasion assays) and plated into wells of a 96 well plate^57. After 1 h at 37° C., the matrices were overlaid with 100 μl serum-free medium (with either vehicle, cytokines or inhibitors) or CM. Every 2 days, medium was changed and at day 6 the gels were photographed and the respective diameters of the well and gel were measured using ImageJ. The percentage contraction was calculated using the formula 100*(well diameter−gel diameter)/well diameter.

mouse dermal fibroblasts = experiment: TGFβ1-stimulated mouse dermal fibroblasts: STAT3 phosphorylation and collagen gel contraction; type: cell-based
Protocol: as §3, §2

SMAD2 = SMAD2 phosphorylation in fibroblasts (western blot); type: cell-based, human; conditions: TGFβ1- or LIF-stimulated fibroblasts
Excerpt: as §1
For immunoblotting analysis, cells were lysed on ice in lysis buffer (25 mM Tris (pH 6.8), 2% Sodium dodecyl sulfate (SDS), 5% glycerol, 1% beta-mercaptoethanol, 0.01% bromophenol blue). Equal amounts of protein from each sample were loaded on sodium dodecyl sulfate-polyacrylamide gel electrophoresis, separated, and transferred onto nitrocellulose. […]

For `N#CCC(C1CCCC1)n1cc(-c2ncnc3[nH]ccc23)cn1` (centres unmarked) [Ruxolitinib, 3-Cyclopentyl-3-[4-(7H-pyrrolo[2,3-d]pyrimidin-4-yl)-1H-pyrazol-1-yl]propanenitrile], the “track formation and SCC12 cell invasion promoted by hCAF” value (SCC12 cells; hCAF) was “prevented”, the “pro-invasive hDF activation induced upon TGFβ1 and LIF stimulation” value (SCC12 cells; hDF, TGFβ1 and LIF stimulation) was “abrogated” and the STAT3 phosphorylation (STAT3; TGFβ1- or LIF-stimulated fibroblasts) was “repressing”. The “CAF endogenous STAT3 activity” value (STAT3; hCAF) was “inhibition”, the “TGFβ1 and LIF-dependent activation of hDF contractility” value (hDF and hCAF) was “completely inhibited” and the STAT3 phosphorylation (mouse dermal fibroblasts) was “complete abrogation”. For the same molecule, the matrix remodelling (mouse dermal fibroblasts) was “complete abrogation” and the “effect on SMAD2” value (SMAD2) was “no effect”.
